Source: US7880021B2, “Compounds and kits for the detection and the quantification of cell apoptosis” (Centre National de la Recherche Scientifique (CNRS), priority 2005, dated 2011)

Columns and labels:
L 929 cells = assay: Confocal fluorescence imaging of L 929 cells stained with 3-HF probes; type: cell-based
Description: FIG. 1: (a) Formula and location of 3-HF probes of the prior art F and F2N8 and of the probe of the invention F2N12S in phospholipid bilayers (a). Confocal fluorescence images of L 929 cells stained with probes F (b), F2N8 (c) and F2N12S (d). All images were obtained by collecting fluorescence in the 585-700 nm wavelength range 10 min after probe addition. Scale bar, 10 μm (b).
(§1) The cells were washed twice by HBSS before each experiment to eliminate fetal bovine serum. In sorting experiments, cells were resuspended in the binding buffer and labeled with the annexin V-FITC kit. For fluorescence measurements with the probe of the invention F2N12S (fluorometry, flow cytometry and confocal microscopy), cells were resuspended in HBSS with 0.1 μM F2N12S. Then, the cell suspension was placed in a shaker bath for 10 min in the incubator. The staining pattern of the cells was checked with a Confocal Imaging System MRC-1024 (BioRad) to ascertain that fluorescence originates from the plasma membrane.
For collecting cell images, a Laser Scanning Confocal Imaging System MRC-1024 (Bio-Rad) was used. […] Collected images were analyzed by the Amira 3.0 software.
Confocal laser microscopy have been performed on adherent L 929 cells stained with these first generation molecules (FIG. 1.b, c). The obtained fluorescence images reveal a rapid penetration of these dyes inside the cells. […]

CEM T cells = assay: Two-color confocal ratiometric imaging of normal and apoptotic cells; type: cell-based, human
Description: FIG. 5: Confocal fluorescence ratiometric images of CEM cells stained with F2N12S: normal cells (a); apoptotic cells, obtained by FITC-annexin based sorting of cells treated with actinomycin (b); and actinomycin-treated without cell sorting (c). The images were recorded after a 10 min incubation of the probe with the cells. Scale bar, 10 μm.
Human lymphoid CEM T cells were cultured in X-vivo 15 medium (Cambrex, France) at 37° C. in humidified 5% CO2 atmosphere. Cell viability was checked by trypan blue exclusion. Cells were seeded at 5×10^5 cells/ml in the presence or absence of actinomycin D (0.5 μg/ml) for 18 h. Cells were pelleted by centrifugation at 1500 rpm for 5 min and resuspended at 1×10^6 cells/ml in X-vivo 15 medium for experiments.
as §1
For collecting cell images, a Laser Scanning Confocal Imaging System MRC-1024 (Bio-Rad) was used. Cells in chambered cover glass were prepared by following the preparation procedure described above. The 442 nm line of a HeCd laser was used as the excitation light source. Emission was collected by using two filters: 485/30 for the N* band and 585LP for the T* band. Collected images were analyzed by the Amira 3.0 software.
Two-color confocal fluorescence microscopy of CEM T cells stained with F2N12S was performed. Emission light was collected in two spectral regions: at 470-500 nm to monitor the emission of the N* band and above 585 nm to collect the emission of the T* band. Ratiometric images were obtained by dividing the intensity of the T* band by the intensity of the N* band and were used to monitor the cell plasma membrane changes induced by addition of actinomycin D (FIG. 5, a-c).

[1] = Fluorescence properties of the probes (absorption maximum, band resolution); type: physicochemical
From the text: The probe TCN12S is an analog of F2N12S and was synthesized to improve the fluorescence properties. Indeed, substitution of the 2-phenyl group with 2-thienyl shifts the absorption maximum from 420 nm to 445 nm, making this probe suitable for excitation with a He/Cd laser (442 nm). Moreover, the resolution between the two emission bands increases from 90 nm (F2N12S) to 120 nm (TCN12S), favoring two-color ratiometric detection.

3T3 fibroblasts = assay: Flow cytometry F2N12S intensity ratio in 3T3 fibroblasts; type: cell-based; conditions: data not shown
From the text: The probe of the invention F2N12S has been combined with PI and the fluorescence intensities of PI have been represented as a function of the T*/N* ratio of F2N12S (FIG. 6c). In this case, the populations of apoptotic and dead cells are clearly discriminated by using the differences in the PI intensities. […] This conclusion was further strengthened when the populations discriminated by the F2N12S/PI couple were colored according to their response with the annexin V-FITC/PI couple (FIG. 6d).

[2] = actinomycin D-treated cells not sorted by cytometry

With “1-dodecanaminium, N-[[2-[4-Diethylaminophenyl]-3-hydroxychromon-6-yl]-methyl]-N-methyl-N-(3-sulfopropyl)-, inner salt [F2N12S]” the “time the probes stay in the plasma membrane (whole observation time)” value (L 929 cells; L 929 cells in HBSS buffer, limited by lifetime of the cells) was “approx. 1 hour”, the “location of probe fluorescence in stained cells” value (L 929 cells; adherent L 929 cells, images 10 min after probe addition, 585-700 nm) was “emission exclusively from the plasma membranes” and the “fluorescence intensity ratio T*/N*, apoptotic cells” value (CEM T cells; [2]) was about 0.25. The “fluorescence intensity ratio T*/N*, living cells” value (CEM T cells; [2]) was about 1, the “fluorescence intensity ratio T*/N* at the plasma membrane” value (CEM T cells; apoptotic cells obtained by cell sorting, average) was “around 0.25” and the “change in the T*/N* ratio, non-treated versus apoptotic cells” value (CEM T cells; confocal imaging) was 4 fold. For the same substance, the “fluorescence intensity ratio T*/N* at the plasma membrane” value (CEM T cells; non-treated cells, N* 470-500 nm, T* above 585 nm) was about 1, the absorption maximum [1] was 420 nm and the “resolution between the two emission bands” value [1] was 90 nm. For the same substance, the “F2N12S intensity ratio values compared with T lymphoblastoid cells” value (3T3 fibroblasts) was “very similar”.
